Results on five compounds are retold here after patent US4510132A, “Compounds for use in antibacterial therapy” (priority 1982, dated 1985).

Bounds are passed on as bounds.

Test [1] deals with Salmonella typhimurium LT2 strain SL 696. The test can be described thus: MIC of antibiotics in the presence of polymyxin nonapeptide, microtiter plate, S. typhimurium. Format: cell-based. Conditions: for minimum inhibitory concentration (MIC) of the antibiotic: S. typhimurium SL 696, 18 h; for factor by which PMBN sensitized the strain to the antibiotic: S. typhimurium strain SL 696, from Table 1. The protocol:
(§1) Methods. Smooth Salmonella typhimurium LT2 strain SL 696 (Wilkinson et al 1972 J. Gen. Microbiol. 70,527) was used as indicator organism. It was grown in Luria broth (Miller 1972. Experience in molecular genetics, Cold Spring Harbor Laboratory, New York) at 37° C. in a rotary shaker (220 rpm) into early logarithmic growth phase (Klett 40 units, Klett-Summerson colorimeter, red filter) washed with 0.9% NaCl and resuspended in 0.9% NaCl (final optical density 120 Klett units corresponding to approx. 10^9 cells/ml).
(§2) Erythromycin ethylsuccinate stock solution was prepared by dissolving 5.5 mg of erythromycin […] with 2 ml of 96% ethanol whereafter deionized water was added to a final volume of 5.5 ml. Other antibiotics were readily dissolved in deionized water.
(§3) Experimental procedure: Davis minimal growth medium (Sanderson et al, 1972, Bact. Rev. 36,608) containing glucose (1 g/l), casaminoacids (1 g/l. Difco), tryptophan (20 mg/l), and increasing amounts of a particular antibiotic was inoculated with 10^4 cells per ml of a fresh suspension of indicator bacteria. Aliquots (200 μl) of this inoculated medium were pipetted in wells of a microtiter plate (Titertek, CAT NO. 76-213-05, Flow Laboratories, United States). Each well already contained increasing amounts of the particular polycationic agent in 30 μl of 0.9% NaCl. The plates were sealed with adhesive tape and incubated at 37° C. for 18 h.
(§4) Methods. The known compound, polymyxin E nonapeptide (colistin E nonapeptide, Japanese patent specification Nos. 4178/1971 and 51355/1972) having the following formula: [drawing 5] where leu is leucine, thr is threonine, and dab is diaminobutyric acid, was prepared from polymyxin E (colistin) using an enzymatic ficin treatment as described by Chihara et al (Agr. Biol. Chem. 37,2455, 1973).

In test [2] the test system is E. coli strain IH 3080 (018:K1). The test can be described thus: MIC of antibiotics in the presence of polymyxin nonapeptide, microtiter plate, E. coli. Format: cell-based. The conditions noted are these: for factor by which PMBN sensitized the strain to the antibiotic: E. coli 018:K1 strain IH 3080, from Table 2; for MIC of the antibiotic: E. coli IH 3080. The method, then:
as §1, §2, §3
Methods. The methods were those presented in Example 3 except that E. coli was used as the test organism. The E. coli strain was IH 3080 (018:K1) isolated from the cerebrospinal fluid of a neonate with meningitis.
as §4

On to `CC1(C)S[C@@H]2[C@H](NC(=O)Cc3ccccc3)C(=O)N2[C@H]1C(=O)O` [Benzylpenicillin, benzylpenicillin], for which the “minimum inhibitory concentration (MIC) of the antibiotic” value (from here on “minimum inhibitory concentration (MIC)”) in test [1] (PMBN 0 μg/ml) is reported as 10; in test [1] (PMBN 0.3 μg/ml), 10; in test [1] (PMBN 1 μg/ml), 10; in test [1] (PMBN 3 μg/ml), 3; in test [1] (PMBN 10 μg/ml), 3; in test [1] (PMBN 30 μg/ml), 1. Besides, the “factor by which PMBN sensitized the strain to the antibiotic” value (shortened to “factor”) came out at 10 times in test [1] and 3 times in test [2]. The MIC of the antibiotic amounted to 10 µg/mL in test [2] (PMBN 0 μg/ml); 10 µg/mL in test [2] (PMBN 0.3 μg/ml); 10 µg/mL in test [2] (PMBN 1 μg/ml); 3 µg/mL in test [2] (PMBN 3 μg/ml); 3 µg/mL in test [2] (PMBN 10 μg/ml).
On to `CCC[C@@H]1C[C@@H](C(=O)N[C@@H]([C@H]2O[C@H](SC)[C@H](O)[C@@H](O)[C@H]2O)[C@H](C)Cl)N(C)C1.Cl` [Clindamycin, clindamycin hydrochloride], for which the MIC of the antibiotic is 30 µg/mL in test [2] (PMBN 0 μg/ml); 3 µg/mL in test [2] (PMBN 0.3 μg/ml); 3 µg/mL in test [2] (PMBN 1 μg/ml); 3 µg/mL in test [2] (PMBN 3 μg/ml); 3 µg/mL in test [2] (PMBN 10 μg/ml).
As for `Cc1onc(-c2ccccc2Cl)c1C(=O)N[C@@H]1C(=O)N2[C@@H]1SC(C)(C)[C@@H]2C(=O)O` [Cloxacillin, cloxacillin], the “minimum inhibitory concentration (MIC)” value is not below 1000 in test [1] (PMBN 0 μg/ml); 300 in test [1] (PMBN 0.3 μg/ml); 100 in test [1] (PMBN 1 μg/ml); 100 in test [1] (PMBN 3 μg/ml); 30 in test [1] (PMBN 10 μg/ml); 30 in test [1] (PMBN 30 μg/ml). Also, the “factor” value in test [1] is not below 30 times; in test [2], 100 times. Further, the MIC of the antibiotic in test [2] (PMBN 0 μg/ml) is more than 300 µg/mL; in test [2] (PMBN 0.3 μg/ml), 100 µg/mL; in test [2] (PMBN 1 μg/ml) it was 100 µg/mL; in test [2] (PMBN 3 μg/ml) it was 30 µg/mL; in test [2] (PMBN 10 μg/ml) it was 30 µg/mL.
As for `CCOc1ccc2ccccc2c1C(=O)N[C@@H]1C(=O)N2[C@@H]1SC(C)(C)[C@@H]2C(=O)O` [Nafcillin, nafcillin], the “minimum inhibitory concentration (MIC)” value was not below 1000 in test [1] (PMBN 0 μg/ml); not below 1000 in test [1] (PMBN 0.3 μg/ml); 100 in test [1] (PMBN 1 μg/ml); 100 in test [1] (PMBN 3 μg/ml); 30 in test [1] (PMBN 10 μg/ml); 30 in test [1] (PMBN 30 μg/ml). Further, the “factor” value in test [1] is given as not below 30 times.
For `CO[C@H]1/C=C/O[C@@]2(C)Oc3c(C)c(O)c4c(O)c(c(/C=N/N5CCN(C)CC5)c(O)c4c3C2=O)NC(=O)/C(C)=C\C=C\[C@H](C)[C@H](O)[C@@H](C)[C@@H](O)[C@@H](C)[C@H](OC(C)=O)[C@@H]1C` [Rifampicin], the “factor” value in test [2] was determined as 100 times. Besides, the MIC of the antibiotic stood at 3 µg/mL in test [2] (PMBN 0 μg/ml); 3 µg/mL in test [2] (PMBN 0.3 μg/ml); 0.1 µg/mL in test [2] (PMBN 1 μg/ml); 0.03 µg/mL in test [2] (PMBN 3 μg/ml); 0.03 µg/mL in test [2] (PMBN 10 μg/ml).
